Data on 1 molecule can be found in patent US11890287B2, “Therapeutic compounds and compositions for treating social disorders and substance use disorders” (Kinoxis Therapeutics Pty Ltd, priority 2015, dated 2024).

One data set concerns rhesus monkeys. In words: Intravenous cocaine self-administration. It is filed as in vivo, rhesus monkey. The following applies: 3 mg/kg orally.
The subject of the next data set is rat hypothalamic neurons. In words: Signalling in rat hypothalamic neurons. It is filed as cell-based.
The test system of another data set is HEK-293 cells. The data set is described as follows: Cell viability (Cell Titer Blue). It is filed as cell-based. The following applies: 48 hours; for Viability: mean ± SD. As for the experimental part:
(§1) No apparent cytotoxicity of SOC-1 has been seen in vitro or toxicity in vivo. In a test, SH-SY5Y neuroblastoma cells and HEK-293 cells (4×10^4 cells per well) were exposed to OT or SOC-1 (0.01-10 μM) for 48 hours, with daily media changes. Viability of cells was assessed after a 4 hour exposure to Cell Titer Blue (Promega).

Data set [1] has as its system SH-SY5Y neuroblastoma cells. The data set is described as follows: Cell viability (Cell Titer Blue). It is filed as cell-based. Conditions: 48 hours; for Viability: mean ± SD. As to the method: as §1
In another data set the test system is rats. The data set is described as follows: In vivo toxicity/adverse events. Also noted: species or system rat. As for the experimental part:
However, the rats were not ataxic or comatose, they were simply in a relaxed quiescent state. […] Effects on body temperature and other behaviours are not blocked by pre-treatment with the vasopressin V1A receptor antagonist SR49059 (10 mg/kg). […] The data in these two studies was gathered with DataSciences International biotelemetry system.

The subject of another data set is male Sprague Dawley rats. In words: Methamphetamine IVSA under a progressive ratio schedule. The data set is classed as in vivo, rat. As to the method:
Following recovery from surgery, rats were able to self-administer intravenous METH during 2 hour sessions. At the beginning of each session, catheters were flushed with 0.1 ml heparinised saline (10 IU/ml) and were connected to the infusion line. Lever extension and house light illumination indicated the initiation of the session. […] Depression of the active lever delivered a 3 s infusion of METH (0.1 mg/kg/infusion, 50 μL), illuminated the cue light, and extinguished the house light. The house light was extinguished for a 20 second time period during which depression of the active lever had no programmed consequences. […] At the end of each session, the infusion line was disconnected and catheters were flushed with 0.2 ml of cephazolin sodium in heparinized saline solution.
Rats acquired self-administration of METH during daily 2 hour fixed ratio 1 scheduled sessions. To avoid overdose, each rat was limited to a maximum of 60 infusions per session. Rats continued under the FR-1 schedule until stable responding was met as indicated by less than 10% variability in number of infusions and active lever presses compared to the day prior. Stable self-administration baselines were achieved within 10 days, after which rats advanced to the progressive ratio schedule.
Under the progressive ratio (PR) schedule, METH infusions were delivered according to the ratio: ((5×(e^reinforcer #×0.2)−5). The number of active lever presses that were required to receive one METH infusion increased according to the following sequence: 1, 2, 4, 6, 9, 12, 15, 20, 25, 32, 40, 50, 62, 77, 95, 118, 145, 178, 219, 268 (Cornish et al., 2005). The daily PR sessions were completed after 2 hours or if an infusion had not been self-administered for 60 minutes. Rats continued with PR sessions until lever pressing stabilised, which was determined by less than 10% variability in number of infusions and active lever presses for two consecutive days. Lever pressing stabilised after 7 days. During this time, the rats were given a sham saline i.p. (1 ml/kg) injection prior to the session. […]

As for `Cl.Cn1ncc2c1Nc1ccccc1NC2` [SOC-1], the food consumption result in the data set on rhesus monkeys is “without affecting food consumption”. In addition, the “intravenous cocaine self-administration relative to baseline levels” value in the data set on rhesus monkeys was “nearly halved”. Also, in the data set on rat hypothalamic neurons, the “Ca^2+ levels” value is given as “did not reliably alter Ca^2+ levels”. Moreover, the IP1 levels entry in the data set on rat hypothalamic neurons was “did not alter IP1 levels”. The “basal cAMP” value in the data set with rat hypothalamic neurons is given as “able to decrease basal cAMP”. The “forskolin-stimulated cAMP” value in the data set on rat hypothalamic neurons was “did not reliably decrease forskolin-stimulated cAMP”. Also, the Viability in the data set on HEK-293 cells (0.01 μM) was 102.6 ± 2.1 percentage of vehicle viability; in the data set on HEK-293 cells (0.1 μM), 102.1 ± 3.2 percentage of vehicle viability; in the data set on HEK-293 cells (1 μM), 102.5 ± 3.6 percentage of vehicle viability; with HEK-293 cells (10 μM) it was 103.2 ± 1.2 percentage of vehicle viability; in data set [1] (0.01 μM), 98.9 ± 2.7 percentage of vehicle viability; in data set [1] (0.1 μM) it was 99.1 ± 2.9 percentage of vehicle viability. The figures for the Viability in data set [1] (1 μM) and in data set [1] (10 μM) were 97.7 ± 1.6 percentage of vehicle viability and 97.0 ± 2.5 percentage of vehicle viability, respectively. The differences in viability result (in the data set on HEK-293 cells (0.01-10 μM); in data set [1] (0.01-10 μM)) was “No significant differences in viability” each time. The locomotor activity entry is “some mild inhibition of locomotor activity” with rats (10-20 mg/kg IP) and “significant reduction” with male Sprague Dawley rats (10 mg/kg IP, p=0.005 vs vehicle). The “tolerability of repeated dosing (body weight, coat condition)” value with rats (repeated dosing) is given as “without any apparent adverse effects”. The “active lever pressing under a PR schedule” value in the data set on male Sprague Dawley rats (5 mg (p=0.043) and 10 mg/kg (p=0.007) IP vs vehicle) is on record as “significantly reduced active lever pressing”. For the same molecule, in the data set on male Sprague Dawley rats (10 mg/kg IP, p=0.001 vs vehicle), the infusion breakpoint entry is given as “significant reduction”.
